Where two headings read alike, the source gives them in different places.
What was measured:
mouse δ opioid receptor [1] = target: T1, mouse δ opioid receptor (Mus musculus, UniProt P32300); experiment: cell-based; format: cell-based; settings: for Emax: HEK293, read-out: Max Inhibition %
mouse δ opioid receptor [2] = target: T1, mouse δ opioid receptor
mouse δ opioid receptor [3] = target: T1, mouse δ opioid receptor; format: binding; settings: read-out: AFFINITY Ki
μ opioid receptors [4] = settings: ref Gharagozlou et al. unpublished results; cited from earlier work
μ opioid receptors [5] = settings: ref Gharagozlou et al. unpublished results; cited from earlier work; remark: listed apart in the source

T1 sequence (P32300 whole entry): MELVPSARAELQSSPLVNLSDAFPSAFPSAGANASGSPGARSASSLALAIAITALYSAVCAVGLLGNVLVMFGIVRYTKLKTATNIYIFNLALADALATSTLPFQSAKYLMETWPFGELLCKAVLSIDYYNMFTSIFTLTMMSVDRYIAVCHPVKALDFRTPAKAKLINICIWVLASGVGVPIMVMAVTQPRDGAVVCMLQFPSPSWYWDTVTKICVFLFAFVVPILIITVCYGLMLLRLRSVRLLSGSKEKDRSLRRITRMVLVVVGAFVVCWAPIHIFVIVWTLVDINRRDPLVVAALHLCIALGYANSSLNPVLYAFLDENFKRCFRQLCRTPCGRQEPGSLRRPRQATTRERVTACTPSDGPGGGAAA

Oc1ccc2c(c1)[C@@]13CCCC[C@@]1(O)[C@@H](C2)N(CC1CCC1)CC3 [Butorphanol]
Emax (mouse δ opioid receptor [1]): 64 ± 4% | IC50 (mouse δ opioid receptor [1]; IC50 ± SEM): 61 ± 12 nM

C[C@H]1[C@H]2Cc3ccc(O)cc3[C@]1(C)CCN2CC1CC1 [Cyclazocine]
Emax (mouse δ opioid receptor [1]): 53 ± 2% | IC50 (mouse δ opioid receptor [1]; IC50 ± SEM): 6 ± 3 nM

C[C@@]12CCCCC[C@@H](Cc3ccc(O)cc31)[C@@H]2N [Dezocine]
Emax (mouse δ opioid receptor [1]): 39% | IC50 (mouse δ opioid receptor [1]; IC50 ± SEM): 477 ± 152 nM

C[C@H]1[C@H]2Cc3ccc(O)cc3[C@]1(C)CCN2C [Metazocine]
Agonist efficacy classification at δ opioid receptors (mouse δ opioid receptor [1]): super agonists | Emax (mouse δ opioid receptor [1]): 77 ± 4% | IC50 (mouse δ opioid receptor [1]; IC50 ± SEM): 159 ± 70 nM

C=CCN1CC[C@]23c4c5ccc(O)c4O[C@H]2[C@@H](O)C=C[C@H]3[C@H]1C5 [Nalorphine]
Classification as antagonist at δ opioid receptor (mouse δ opioid receptor [2]): Antagonist

C=CCN1CCC2(C)c3cc(O)ccc3CC1C2C (centres unmarked) [SKF 10047]
Emax (mouse δ opioid receptor [1]): 68 ± 9% | IC50 (mouse δ opioid receptor [1]; IC50 ± SEM): 184 ± 121 nM

CN1CC[C@]2(C)c3cc(O)ccc3C[C@H]1C2(C)CCC(=O)CCC1CCCC1 (some centres unmarked) [WIN 44,441]
Max Inhibition % (mouse δ opioid receptor [1]): 54 ± 6 % | IC50 (mouse δ opioid receptor [1]; read-out: IC50 ± SEM): 40 ± 25 nM | Ki (mouse δ opioid receptor [3]): 2.6 ± 0.9 nM | affinity at μ opioid receptors (μ opioid receptors [4]): less than 1 nM | activation profile at μ opioid receptors (μ opioid receptors [5]): antagonist

C=C1C[C@H](C)[C@H]2[C@H]3Cc4ccc(O)cc4[C@@]2(CCN3CC2CCC2)C1 [Xorphanol]
Agonist efficacy classification at δ opioid receptors (mouse δ opioid receptor [1]): super agonists | Max Inhibition % (mouse δ opioid receptor [1]): 76 ± 4^$$ ## % | IC50 (mouse δ opioid receptor [1]; read-out: IC50 ± SEM): 8 ± 2 nM | Ki (mouse δ opioid receptor [3]): 1 ± 0.2 nM | affinity at μ opioid receptors (μ opioid receptors [4]): less than 1 nM | activation profile at μ opioid receptors (μ opioid receptors [5]): very weak agonist

From publication PMC137588 (BMC Neuroscience, 2002)
